The results in this text go back to article PMC6982223, “Design, Synthesis and Molecular Modeling Study of Conjugates of ADP and Morpholino Nucleosides as A Novel Class of Inhibitors of PARP-1, PARP-2 and PARP-3” (International Journal of Molecular Sciences, 2019).

Assay type in all cases: biochemical
The target in assay [1] is T1, Murine recombinant poly(ADP-ribose)-polymerase 2 (Mus musculus, UniProt O88554).
T1 construct: made in house
As to the kind of experiment: autopoly(ADP-ribosyl)ation of PARP-2, [32P]NAD+ incorporation. Conditions: autopoly(ADP-ribosyl)ation, 0.6 mM NAD+. The source says: (§1) The oligonucleotides were purchased from Biosset (Novosibirsk, Russia). The reagents, solvents and the basic components of buffers were purchased from Sigma (St. Louis, MO, USA), Acros organics (Waltham, MA, USA) or Promega (Madison, WI, USA). γ–[^32P]-ATP and α–[^32P]-ATP (with specific activities of 5000 and 3000 Ci/mmol, respectively) were from the Laboratory of Biotechnology (Institute of Chemical Biology and Fundamental Medicine, Novosibirsk, Russia). T4 polynucleotide kinase was from Biosan (Novosibirsk, Russia). SUMO fusion expression vector pETHSUL (GenBank: EF205333.1) and pSUPER vector coding for the catalytic domain of the S. cerevisiae SUMO hydrolase dtUD1 were kindly provided by Dr. P. Loll (Drexel University, Philadelphia, USA). His6 and Strep-II double-tagged dtUD1 hydrolase was expressed and purified as described in ref. [81]. Human recombinant poly(ADP-ribose)-polymerase 1 (EC 2.4.2.30) was prepared as described previously. Murine recombinant poly(ADP-ribose)-polymerase 2 (EC 2.4.2.30) was purified as described previously. Plasmid encoding human PARP-3 was kindly provided by Dr. A. Ishchenko (Gustave Roussy, Université Paris-Saclay, France). Poly(ADP-ribose)-polymerase 3 (EC 2.4.2.30) was purified according to [6].
(§2) The reaction of autopoly(ADP-ribosyl)ation was carried out as follows: for PARP-1 50 mM tris-HCl, pH 8.0, 20 mM MgCl2, 150 mM NaCl, and 7 mM β-mercaptoethanol, activated DNA 2 OE/mL, 0.3 mM [^32P] NAD+ at 37 °C. The reaction was initiated by adding PARP-1 to 200 nM and the reaction mixtures were incubated for 1.5 min. For PARP-2: 50 mM tris-HCl, pH 8.0, 3 mM spermin, 150 mM NaCl, and 7 mM β-mercaptoethanol, activated DNA 2 OE/mL, 0.6 mM [^32P] NAD+ at 37 °C. The reaction was initiated by adding PARP-2 to 800 nM and the reaction mixtures were incubated for 5 min. The reaction was stopped by placing 10 μL aliquots onto Whatman 1 paper filters soaked with 5 % TCA. The filters were washed with 5% TCA for four times and dried in air after the removal of TCA with 90% ethanol. The incorporation of radioactivity into the product was calculated with a Tri-Carb 2800 scintillation counter (Perkin Elmer, Waltham, MA, USA) according to the Cherenkov method or using Typhoon FLA 9500 scanner (GE Healthcare, Chicago, IL, USA). To determine the IC50 value of inhibitors (concentration of the compound required reducing the enzyme activity by 50%), we studied the activity of the enzyme at different concentrations of inhibitors. Measurements were done in at least two independent experiments. IC50 values were calculated using the Origin Pro 8.0 software by nonlinear regression analysis.

For assay [2], the target named is T2, Human recombinant poly(ADP-ribose)-polymerase 1 (Homo sapiens, UniProt P09874).
T2 construct: made in house
As to the kind of experiment: autopoly(ADP-ribosyl)ation of PARP-1, [32P]NAD+ incorporation. Conditions: autopoly(ADP-ribosyl)ation, 0.3 mM NAD+.
Excerpt: as §1, §2

The target in assay [3] is T3, PARP-3 (Homo sapiens, UniProt Q9Y6F1).
T3 construct: made in house
T3 sequence (Q9Y6F1 1-533): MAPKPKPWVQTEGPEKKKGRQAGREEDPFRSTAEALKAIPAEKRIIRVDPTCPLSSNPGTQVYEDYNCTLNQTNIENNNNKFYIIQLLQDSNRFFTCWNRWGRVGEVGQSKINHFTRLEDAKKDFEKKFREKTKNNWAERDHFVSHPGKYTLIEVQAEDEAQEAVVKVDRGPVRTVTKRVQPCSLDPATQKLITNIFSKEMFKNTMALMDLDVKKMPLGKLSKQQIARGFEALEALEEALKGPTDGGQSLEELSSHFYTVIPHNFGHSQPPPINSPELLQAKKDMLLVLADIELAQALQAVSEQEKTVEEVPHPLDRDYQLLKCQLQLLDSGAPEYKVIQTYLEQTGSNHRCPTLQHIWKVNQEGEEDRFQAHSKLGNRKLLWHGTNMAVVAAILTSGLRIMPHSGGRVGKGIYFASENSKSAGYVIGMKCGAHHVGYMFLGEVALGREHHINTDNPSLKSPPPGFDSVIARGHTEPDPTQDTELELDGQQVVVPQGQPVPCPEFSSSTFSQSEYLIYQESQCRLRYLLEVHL
Nature of the assay: auto(ADP-ribosyl)ation of PARP-3.
Excerpt: as §1
The reactions were performed in the presence of 2 mM MgCl2 as a cofactor in HDB buffer. The reaction mixtures (final volume 10 μL) contained 0.1 μM DNA substrate, 0.5 μM PARP-3, 5 μM [^32P]-NAD+ and 0, 35 or 95 μM NAD+ in the absence or presence of various concentrations of the inhibitor, which are indicated on the figures. The reaction mixtures were incubated for 20 min at 37 °С then terminated by adding the 5x gel loading Laemmli sample buffer and heating at 85 °C for 10 min. The mixtures were resolved on a 10% SDS-PAG as described in [84] The gels were dried and subjected to autoradiography and/or phosphorimaging for quantitation using the Typhoon imaging system from GE Healthcare Life Sciences. Quantitative processing was carried out using OriginPro7.5, Microcal Software, USA. […]

Assay [4] concerns the target T4, PARP-1 (Homo sapiens, UniProt P09874).
T4 construct: made in house
As to the kind of experiment: kinetics of PARP-1 inhibition (Km, Vmax, type of inhibition) by fluorescence anisotropy. Conditions: for type of inhibition: PARP-1 catalyzed reaction, versus NAD+. How it is done: The type of inhibition was determined based on at what stage of the reaction the inhibitor binds to the enzyme (before or after the substrate binding) and where it binds (at the substrate binding site or elsewhere). There are four types of inhibition: competitive, whereby an inhibitor binding occurs at the substrate-binding site; noncompetitive, where an inhibitor binds at the allosteric center; mixed with inhibitor binding at both the active and allosteric center; or uncompetitive under an inhibitor binding to the enzyme-substrate complex. Determination of the type of inhibition is necessary to confirm the computer simulation data and to plan further modifications of the inhibitor structure. The type of inhibition can be determined from the plots of the reaction parameters, such as maximum rates, Vmax and the apparent Michaelis constant, Km, values, versus inhibitor concentration. […] Noncompetitive inhibition leads to a decrease of Vmax and retention of the Km values. Mixed inhibition is a superposition of the first two, and is characterized by a decrease in the reaction rate and an increase in Km values. In the case of uncompetitive inhibition, both […].
To determine the type of inhibition of the studied compounds, the activity of PARP-1 was measured at presence of three different inhibitor concentrations at nine NAD+ substrate concentrations by the fluorescence anisotropy technique. Based on the obtained data, dependence graphs of the initial reaction rate on the substrate concentration were constructed, and reaction parameters such as maximum reaction rate (Vmax) and apparent Michaelis constant (Km) values were found (Tables S3 and S4, Supporting). To determine the type of inhibition, we plotted the dependence graph of Vmax and Km values on the inhibitor concentration using OriginPro 8.6.0 software. (Figure 3). […] Therefore, the results of modeling of the binding type of these compounds in the enzyme’s active center are legitimate.
The determination of the kinetic parameters of inhibition Km and Vmax was carried out as described. In all experiments, the points on the experimental curves represent the average of a minimum three independent experiments.

T1 sequence (O88554 whole entry): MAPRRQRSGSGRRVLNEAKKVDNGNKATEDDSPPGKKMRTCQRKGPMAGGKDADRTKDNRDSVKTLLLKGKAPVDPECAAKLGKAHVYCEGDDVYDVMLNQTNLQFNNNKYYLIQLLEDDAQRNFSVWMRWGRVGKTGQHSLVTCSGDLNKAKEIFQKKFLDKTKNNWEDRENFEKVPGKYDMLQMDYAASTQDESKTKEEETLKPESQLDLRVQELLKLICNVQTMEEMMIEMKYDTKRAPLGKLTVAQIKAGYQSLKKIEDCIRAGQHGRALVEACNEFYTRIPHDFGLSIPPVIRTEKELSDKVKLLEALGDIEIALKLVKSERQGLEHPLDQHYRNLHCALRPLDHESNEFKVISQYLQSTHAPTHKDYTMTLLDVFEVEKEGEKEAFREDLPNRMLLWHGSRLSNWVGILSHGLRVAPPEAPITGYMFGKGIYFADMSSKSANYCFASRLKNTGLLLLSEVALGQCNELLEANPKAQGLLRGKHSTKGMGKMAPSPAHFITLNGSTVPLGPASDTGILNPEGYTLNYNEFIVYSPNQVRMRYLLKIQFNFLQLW
T4 sequence (P09874 whole entry): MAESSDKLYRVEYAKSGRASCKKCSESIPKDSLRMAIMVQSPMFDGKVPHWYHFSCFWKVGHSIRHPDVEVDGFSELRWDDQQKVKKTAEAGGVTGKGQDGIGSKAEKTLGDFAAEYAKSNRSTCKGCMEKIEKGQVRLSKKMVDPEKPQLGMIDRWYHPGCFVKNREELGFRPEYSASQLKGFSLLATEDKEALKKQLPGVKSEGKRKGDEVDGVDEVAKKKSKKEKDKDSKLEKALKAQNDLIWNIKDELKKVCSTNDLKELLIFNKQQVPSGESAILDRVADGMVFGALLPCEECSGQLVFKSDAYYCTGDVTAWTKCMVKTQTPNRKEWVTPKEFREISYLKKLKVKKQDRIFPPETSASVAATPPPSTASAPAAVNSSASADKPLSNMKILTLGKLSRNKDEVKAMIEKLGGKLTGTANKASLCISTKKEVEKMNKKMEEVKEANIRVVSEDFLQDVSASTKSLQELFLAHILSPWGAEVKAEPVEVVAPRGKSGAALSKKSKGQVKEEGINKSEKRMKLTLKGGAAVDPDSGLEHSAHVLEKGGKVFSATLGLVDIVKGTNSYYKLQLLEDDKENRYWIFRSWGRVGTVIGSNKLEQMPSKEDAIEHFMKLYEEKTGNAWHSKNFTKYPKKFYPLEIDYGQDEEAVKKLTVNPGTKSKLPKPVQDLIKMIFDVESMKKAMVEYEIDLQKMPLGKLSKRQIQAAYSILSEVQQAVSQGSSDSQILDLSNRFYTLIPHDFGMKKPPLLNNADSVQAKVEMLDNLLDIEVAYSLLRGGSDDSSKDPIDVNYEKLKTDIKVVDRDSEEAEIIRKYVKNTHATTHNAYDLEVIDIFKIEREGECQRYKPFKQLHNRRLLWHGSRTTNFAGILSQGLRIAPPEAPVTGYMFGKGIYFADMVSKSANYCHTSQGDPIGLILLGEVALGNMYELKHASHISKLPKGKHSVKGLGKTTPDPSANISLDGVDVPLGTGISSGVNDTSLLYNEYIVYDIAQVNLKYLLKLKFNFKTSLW
T2 sequence (P09874 whole entry): as above

In the case of `Nc1ncnc2c1ncn2C1CNCC(CNP(=O)(O)OP(=O)(O)OCC2OC(n3cnc4c(N)ncnc43)C(O)C2O)O1` (stereo not drawn) [Compound 10A], the IC50 in assay [1] came to 63 ± 10 µM; in assay [2], 353 ± 4 µM. The “activity against PARP-3” value in assay [3] is “lack of activity”. Further, the type of inhibition result in assay [4] is “mixed inhibitor”. Moreover, the Vmax came to 0.090 RFU/sec in assay [4] (inhibitor concentration 300 μМ), 0.068 RFU/sec in assay [4] (inhibitor concentration 600 μМ) and 0.062 RFU/sec in assay [4] (inhibitor concentration 900 μМ).
As for `NC(=O)c1cccc(N)c1` [Compound 3-AB, 3-aminobenzamide, reference compound], the Vmax in assay [4] (inhibitor concentration 50 μМ), in assay [4] (inhibitor concentration 100 μМ) and in assay [4] (inhibitor concentration 500 μМ) was 0.16 RFU/sec in each case.
On to `Nc1ncnc2c1ncn2C1OC(COP(=O)(O)OP(=O)(O)NCC2CNCC(n3cc(I)c(=O)[nH]c3=O)O2)C(O)C1O` (stereo not drawn) [Compound 10IU], for which the results for the IC50 in assay [1] and in assay [2] were 110 µM and 126 µM, respectively. For the same molecule, the “activity against PARP-3” value in assay [3] is “low activity”. Moreover, the “inhibitory activity in the auto(ADP-ribosyl)ation reaction of PARP-3” value in assay [3] (1 mM concentration) is given as “significant inhibitory activity”. Also, the type of inhibition entry in assay [4] is given as “competitive inhibitors”. Moreover, the Vmax worked out at 0.19 RFU/sec in assay [4] (inhibitor concentration 50 μМ), 0.18 RFU/sec in assay [4] (inhibitor concentration 100 μМ) and 0.17 RFU/sec in assay [4] (inhibitor concentration 500 μМ).
Take `Nc1ncnc2c1ncn2C1OC(COP(=O)(O)OP(=O)(O)OCC2CNCC(n3cc(I)c(=O)[nH]c3=O)O2)C(O)C1O` (stereo not drawn) [Compound 4IU]: the IC50 in assay [1] is 160 µM; in assay [2] it was 255 µM. In addition, in assay [4], the type of inhibition result is “mixed inhibitor”. Besides, the Vmax amounted to 0.16 RFU/sec in assay [4] (inhibitor concentration 50 μМ), 0.15 RFU/sec in assay [4] (inhibitor concentration 100 μМ) and 0.14 RFU/sec in assay [4] (inhibitor concentration 500 μМ).
For the molecule `O=c1[nH]c(=O)n([C@H]2CNC[C@@H](CO)O2)cc1I` [Compound 11IU], the IC50 in assay [1] amounted to 85 ± 9 µM; in assay [2], 53 ± 12 µM. Besides, the type of inhibition entry in assay [4] was “competitive inhibitors”. Besides, the Vmax in assay [4] (inhibitor concentration 50 μМ) was 0.066 RFU/sec; in assay [4] (inhibitor concentration 100 μМ), 0.066 RFU/sec; in assay [4] (inhibitor concentration 500 μМ) it was 0.060 RFU/sec.
